Reference: patent US5959123A, “3,4-Disubstituted azetidin-2-one derivatives useful as cysteine proteinase regulators” (Synphar Laboratories, Inc., priority 1997, dated 1999)

Experiments:
[1] = target: cathepsin L (Rattus norvegicus, UniProt P07154); test: In vitro assay for cathepsin L inhibition; type: biochemical; settings: r rat cathepsin L; pH 5.0; 10 min incubation at room temperature; substrate N-CBZ-Phe-Arg-AMC (1 mM, 20 μl)
Protocol: To a 170 μl of enzyme-buffer mixture (enzyme: r rat cathepsin L, diluted to give approximate 15 F units/min, buffer: 58.8 mM sodium citrate, 1.18 mM EDTA, 235 mM sodium chloride, 5 mM DTT, pH 5.0) a 10 μL of inhibitor (dissolved in DMSO) was added. After 10 min of incubation at room temperature, a 20 μl of 1 mM substrate (N-CBZ-Phe-Arg-AMC, dissolved in DMSO) was added to initiate reaction. Reading is followed up for 10 min at the fluoroscan reader (excitation at 380 nm emission at 460 nm).
(§1) A plot of percentage of inhibition vs inhibitor concentration is obtained, and IC50 is determined using a linear regression calculation (concentration of inhibitor which will give 50% inhibition).

[2] = target: cathepsin B (Rattus norvegicus, UniProt P00787); test: In vitro assay for cathepsin B inhibition; type: biochemical; settings: r rat cathepsin B; pH 5.1; 10 min incubation at room temperature; substrate N-CBZ-Phe-Arg-AMC (5 mM, 20 μl)
cathepsin B, sequence (P00787 80-333 limits assumed): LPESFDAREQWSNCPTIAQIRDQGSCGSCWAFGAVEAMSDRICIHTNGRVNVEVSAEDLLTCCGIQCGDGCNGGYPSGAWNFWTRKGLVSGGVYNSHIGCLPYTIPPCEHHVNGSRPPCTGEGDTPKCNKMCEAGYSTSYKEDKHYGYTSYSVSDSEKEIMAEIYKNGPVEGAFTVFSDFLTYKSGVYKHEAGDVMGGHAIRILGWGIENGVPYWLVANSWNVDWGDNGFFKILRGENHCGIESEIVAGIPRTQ
Protocol: The compounds of formula I were tested for inhibition of cathepsin B using the known method (A. J. Barret et al., Biochem. J. 1982, 201, 189-198). To a 170 μl of enzyme-buffer mixture (enzyme: r rat cathepsin B, diluted to give approximate 10 F units/min, buffer: 56 mM sodium acetate, 1.124 mM EDTA, 10 mM DTT, pH 5.1) a 10 μL of inhibitor (dissolved in DMSO) was added. After 10 min of incubation at room temperature, a 20 μl of 5 mM substrate (N-CBZ-Phe-Arg-AMC, dissolved in DMSO) was added to initiate reaction. Reading is followed up for 10 min at the fluoroscan reader (excitation at 380 nm emission at 460 nm).
as §1

cathepsin L, sequence (P07154 114-334): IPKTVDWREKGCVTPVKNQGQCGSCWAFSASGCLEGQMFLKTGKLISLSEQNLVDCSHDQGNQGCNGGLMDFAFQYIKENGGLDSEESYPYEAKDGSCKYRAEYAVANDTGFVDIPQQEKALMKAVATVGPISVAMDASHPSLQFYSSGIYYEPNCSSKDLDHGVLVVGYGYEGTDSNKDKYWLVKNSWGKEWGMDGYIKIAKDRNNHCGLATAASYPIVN

| SMILES | IC50 [1] | IC50 [2] |
| --- | --- | --- |
| CC(=O)O[C@@H]1NC(=O)[C@H]1NC(=O)C(NC(=O)OCc1ccccc1)c1ccccc1 (mixture of isomers) [Example 3, (3S,4S)-3-(N-benzyloxycarbonyl-DL-phenylglycyl)-amino-4-acetoxy-azetidin-2-one] | 43100 nM | > 50000 nM |
| CC(=O)O[C@@H]1NC(=O)[C@H]1NC(=O)C(Cc1cccs1)NC(=O)OCc1ccccc1 (mixture of isomers) [Example 7, (3S,4S)-3-(N-benzyloxycarbonyl-β-(2-thienyl)-DL-alanyl)-amino-4-acetoxy-azetidin-2-one] | 2320 nM | 28600 nM |
| CC(=O)O[C@@H]1NC(=O)[C@H]1NC(=O)C1Cc2ccccc2N1C(=O)OCc1ccccc1 (stereo partly drawn) [Example 1, (3S,4S)-3-(1 -N-benzyloxycarbonyl-2-indolinecarbonyl)-amino-4-acetoxy-azetidin-2-one] | 26700 nM | > 50000 nM |
| CC(=O)O[C@@H]1NC(=O)[C@H]1NC(=O)[C@H](NC(=O)OCc1ccccc1)c1ccccc1 [Example 2, (3S,4S)-3-(N-benzyloxycarbonyl-D-phenylglycyl)-amino-4-acetoxy-azetidin-2-one] | > 50000 nM | > 50000 nM |
| CC(=O)O[C@@H]1NC(=O)[C@H]1NC(=O)[C@H](CCc1ccccc1)NC(=O)OCc1ccccc1 [Example 4, (3S,4S)-3-(N-benzyloxycarbonyl-L-homophenylalanyl)-amino-4-acetoxy-azetidin-2-one] | 11400 nM | > 50000 nM |
| CC(=O)O[C@@H]1NC(=O)[C@H]1NC(=O)[C@H](Cc1cccnc1)NC(=O)OCc1ccccc1 [Example 5, (3S,4S)-3-{N-benzyloxycarbonyl-β-(3-pyridyl)-L-alanyl}-amino-4-acetoxy-azetidin-2-one] | 8260 nM | > 50000 nM |
| CC(=O)O[C@@H]1NC(=O)[C@H]1NC(=O)[C@H](Cc1ccccn1)NC(=O)OCc1ccccc1 [Example 6, (3S,4S)-3-(N-benzyloxycarbonyl-β-(2-pyridyl)-L-alanyl)-amino-4-acetoxy-azetidin-2-one] | 12100 nM | > 50000 nM |
| CC(=O)O[C@@H]1NC(=O)[C@H]1NC(=O)[C@H](Cc1ccc2ccccc2c1)NC(=O)OCc1ccccc1 [Example 8, (3S,4S)-3-(N-benzyloxycarbonyl-β-(2-naphthyl)-L-alanyl)-amino-4-acetoxy-azetidin-2-one] | 13.5 nM | 16400 nM |
| CC(=O)O[C@@H]1NC(=O)[C@H]1NC(=O)[C@H](Cc1cccc(F)c1)NC(=O)OCc1ccccc1 [Example 9, (3S,4S)-3-{N-benzyloxycarbonyl-β-(3-fluorophenyl)-L-alanyl}-amino-4-acetoxy-azetidin-2-one] | 341 nM | 18800 nM |
| COc1ccc(C[C@H](NC(=O)OCc2ccccc2)C(=O)N[C@@H]2C(=O)N[C@H]2OC(C)=O)cc1 [Example 10, (3S,4S)-3-{N-benzyloxycarbonyl-β-(4-methoxyphenyl)-L-alanyl}-amino-4-acetoxy-azetidin-2-one] | 57 nM | 7510 nM |
| O=C(CCc1ccccc1)NC(Cc1ccc2ccccc2c1)C(=O)NC1C(=O)NC1Sc1ccccc1 [Example 15, (3S,4SR)-3-{N-(3-phenylpropionoyl)-β-(2-naphthyl)-L-alanyl}-amino-4-phenylthio-azetidin-2-one] | 6.1 nM | 1910 nM |
| O=C(CCc1ccccc1)NC(Cc1ccc2ccccc2c1)C(=O)NC1C(=O)NC1S(=O)(=O)c1ccccc1 [Example 16, (3S,4SR)-3-{N-(3-phenylpropionoyl)-β-(2-naphthyl)-L-alanyl}-amino-4-phenylsulfonyl-azetidin-2-one] | 8.6 nM | 1600 nM |
| O=C(CCc1ccccc1)NC(Cc1ccc2ccccc2c1)C(=O)NC1C(=O)NC1SCCO [Example 17, (3S,4SR)-3-{N-(3-phenylpropionoyl)-β-(2-naphthyl)-L-alanyl}-amino-4-(2-hydroxyethylthio)-azetidin-2-one] | 400 nM | 10100 nM |
| O=C(CCc1ccccc1)N[C@@H](Cc1ccc2ccccc2c1)C(=O)N[C@@H]1C(=O)NC1OC1CCCCC1 (stereo partly drawn) [Example 19, (3S,4SR)-3{N-(3-phenylpropionoyl)-β-(2-naphthyl)-L-alanyl}-amino-4-cyclohexyloxy-azetidin-2-one] | 390 nM | 1950 nM |
| CC(=O)O[C@@H]1NC(=O)[C@H]1NC(=O)[C@H](Cc1ccc2ccccc2c1)NS(=O)(=O)/C=C/c1ccccc1 [Example 20, (3S,4S)-3-{N-(trans-2-phenyl-eth-1-enesulfonyl)-β-(2-naphthyl)-L-alanyl}-amino-4-acetoxy-azetidin-2-one] | 79 nM | 395 nM |

Other lines, results leading:

| IC50 [1] | IC50 [2] | SMILES |
| --- | --- | --- |
| 15 nM | 900 nM | O=C(N[C@@H](Cc1ccc2ccccc2c1)C(=O)N[C@@H]1C(=O)N[C@H]1Oc1ccccc1)OCc1ccccc1 [Example 11, (3S,4S)-3-{N-benzyloxycarbonyl-β-(2-naphthyl)-L-alanyl}-amino-4-phenoxy-azetidin-2-one] |
| 3 nM | 380 nM | Cc1cccc(O[C@@H]2NC(=O)[C@H]2NC(=O)[C@H](Cc2ccc3ccccc3c2)NC(=O)OCc2ccccc2)c1 [Example 12A, (3S,4S)-3{N-benzyloxycarbonyl-β-(2-naphthyl)-L-alanyl}-amino-4-(3-methylphenoxy)-azetidin-2-one] |
| 0.4 nM | 80 nM | Cc1cccc(O[C@H]2NC(=O)[C@H]2NC(=O)[C@H](Cc2ccc3ccccc3c2)NC(=O)OCc2ccccc2)c1 [Example 12B, (3S,4R)-3-{N-benzyloxycarbonyl-β-(2-naphthyl)-L-alanyl}-amino-4-(3-methylphenoxy)-azetidin-2-one] |
| 2.9 nM | 1800 nM | O=C(N[C@@H](Cc1ccc2ccccc2c1)C(=O)N[C@@H]1C(=O)N[C@H]1Oc1ccc2ccccc2c1)OCc1ccccc1 [Example 13A, (3S,4S)-3-{N-benzyloxycarbonyl-β-(2-naphthyl)-L-alanyl}amino-4-(2-naphthoxy)-azetidin-2-one] |
| 0.11 nM | 71.5 nM | O=C(N[C@@H](Cc1ccc2ccccc2c1)C(=O)N[C@@H]1C(=O)N[C@@H]1Oc1ccc2ccccc2c1)OCc1ccccc1 [Example 13B, (3S,4R)-3-{N-benzyloxycarbonyl-β-(2-naphthyl)-L-alanyl}-amino-4-(2-naphthoxy)-azetidin-2-one] |
| 2.7 nM | 1700 nM | O=C(N[C@@H](Cc1ccc2ccccc2c1)C(=O)N[C@@H]1C(=O)N[C@H]1Oc1cccc(N2CCOCC2)c1)OCc1ccccc1 [Example 14A, (3S,4S)-3-{N-benzyloxycarbonyl-β-(2-naphthyl)-L-alanyl}amino-4-{3-(morpholin-4-yl)-phenoxy}-azetidin-2-one] |
| 0.5 nM | 340 nM | O=C(N[C@@H](Cc1ccc2ccccc2c1)C(=O)N[C@@H]1C(=O)N[C@@H]1Oc1cccc(N2CCOCC2)c1)OCc1ccccc1 [Example 14B, (3S,4R)-3-{N-benzyloxycarbonyl-β-(2-naphthyl)-L-alanyl}-amino-4-{3-(morpholin-4-yl)-phenoxy}-azetidin-2-one] |
| 76.7 nM | 1920 nM | O=C(CCc1ccccc1)N[C@@H](Cc1ccc2ccccc2c1)C(=O)N[C@@H]1C(=O)NC1OCc1ccccc1 (stereo partly drawn) [Example 18, (3S,4SR)-3{N-(3-phenylpropionoyl)-β-(2-naphthyl)-L-alanyl}-amino-4-benzyloxy-azetidin-2-one] |
